Key:
[1] = molecular target: BCL-2 (Homo sapiens (Human), UniProt P10415); experiment: BCL-2 TR-FRET Assay (primary PPI inhibition); type: binding; settings: 60 min incubation, read-out: BCL2 IC50
Procedure: Example A. BCL-2 TR-FRET Assay (BPS Bioscience, #50222)
(§1) The following assay concentrations and times were used: 3 ng of BCL-2, 5 μL of 1:100 anti-His Tb-labeled donor, 5 μL of 1:100 Dye-labeled acceptor, 5 µL of 1:40 BCL-2 Peptide Ligand, and 2 μL of 200× test compound, with 60 min incubation time (final concentration of DMSO 0.5%). The results of the assay were read using a plate reader with the following parameters: TR FRET, 340ex/620 and 665em; 60 usec Delay; and 500 usec integration.
(§2) Instrumentation: CLARIOstar Plus (BMG LABTECH); Biomek FX for liquid handling (Beckman Coulter).

[2] = molecular target: BCL-xL (Homo sapiens (Human), UniProt Q07817); experiment: BCL-xL TR-FRET Assay (primary PPI inhibition); type: binding; settings: 60 min incubation, read-out: BCLxL IC50
Chain of BCL-xL (Q07817 whole entry): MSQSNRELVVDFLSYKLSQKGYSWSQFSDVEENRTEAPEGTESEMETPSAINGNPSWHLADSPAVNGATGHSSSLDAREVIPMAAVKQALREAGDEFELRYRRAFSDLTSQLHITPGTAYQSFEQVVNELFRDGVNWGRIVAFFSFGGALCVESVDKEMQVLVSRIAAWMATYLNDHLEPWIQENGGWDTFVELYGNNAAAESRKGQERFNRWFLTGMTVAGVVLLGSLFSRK
Procedure: Example B. BCL-xL TR-FRET Assay (BPS Bioscience, #50223)
as §1, with “used: 10.5” for “used: 3”, “of BCL-xL,” for “of BCL-2,”, “of 1:120” for “of 1:100”, “5 μL” for “5 µL”, “of 1:96 BCL-xL” for “of 1:40 BCL-2”, “Ligand,” for “Ligand, and”
as §2

[3] = tested on: RS4-11 cells; experiment: Cell viability assay (CellTiter-Glo), RS4-11; type: cell-based; settings: Homo sapiens, RS4-11, 72 h, 3 days of incubation
Procedure: (§3) Example D. Cell Viability Assays (Cell lines HEK293, RS4-11, MOLT-4)
(§4) Cells were seeded at a density of 4000 cells per well in the 384-well clear bottom plate (Greiner Cat #781090) to the 45 μL total volume of either DMEM (PanEco, Cat #C420, for HEK293) or RPMI (PanEco, Cat #C330, for other cell lines) with 10% FBS(HyClone Cat #SV30160.03). Prior to adding compounds, the HEK293 cells were allowed to adhere overnight at 37° C. and 5% CO2. The 500× compounds solutions in DMSO(Sigma Cat #D2650) were dispersed into a 384-well compound plate (Diamond Well Plate, Axigen, Cat #P-384-120 SQ-C—S) including only DMSO control. The 1 μL aliquots of the 500× compounds from the compound plate were added to 49 μL of culture medium in the Dilution plate (Diamond Well Plate, Axigen, Cat #P-384-120 SQ-C—S), mixed and then the 5 μL aliquts of the 10× compound solutions were transferred to cells followed by centrifugation at 100 g for 1 min. Final DMSO concentration was 0.2%. After 3 days of incubation the 10 μL aliquots of CellTiter-Glo (Promega, CAT #G7572) were added to the cells, plate was centrifuged at 100 g for 1 min and the luminescence was measured on the CLARIOstar Plus (BMG LABTECH) instrument.
as §2

[4] = Cell viability assay (CellTiter-Glo), HEK293; type: cell-based; settings: human, HEK293 cells, 3 days of incubation
Procedure: as §3, §4, §2

[5] = tested on: MOLT-4 cells; experiment: Cell viability assay (CellTiter-Glo), MOLT-4; type: cell-based; settings: Homo sapiens, 72 h, 3 days of incubation
Procedure: as §3, §4, §2

[6] = tested on: caspase-3 and -7 activities in RS4-11 cells; experiment: Caspase-3/7 activation (Caspase-Glo 3/7) in RS4-11 cells; type: cell-based; settings: Homo sapiens, 3.5 h, read-out: Cas-3/7 EC50
Procedure: Example E. Caspase-3/7 Activation
Assay Principle: The Caspase-Glo 3/7 Assay is homogeneous, luminescent assay that measures caspase-3 and -7 activities. The assay provides a luminogenic caspase-3/7 substrate, which contains the tetrapeptide sequence DEVD, in a reagent optimized for caspase activity.
Assay Procedure: Incubate RS4-11 (ATCC, CRL-1873) cells in the 384-well white plate (Corning, #3570) with varying concentrations of test compounds for 3.5 h in a humidified incubator at 37° C. and 5% CO2 […]. Add 15 μL of the Caspase-Glo (Promega, #8212) reagent to each well and to incubate the plate for 30 min at rt. Read on the CLARIOstar Plus (BMG LABTECH) instrument.
as §2

Chain of BCL-2 (P10415 whole entry): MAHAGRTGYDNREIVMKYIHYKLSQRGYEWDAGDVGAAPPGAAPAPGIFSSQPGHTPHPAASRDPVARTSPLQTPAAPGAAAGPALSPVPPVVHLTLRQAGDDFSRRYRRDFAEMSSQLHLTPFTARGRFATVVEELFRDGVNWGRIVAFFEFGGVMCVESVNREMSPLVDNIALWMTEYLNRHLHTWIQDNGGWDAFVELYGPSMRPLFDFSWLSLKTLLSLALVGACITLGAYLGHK

| Structure (SMILES) | IC50 [1] | IC50 [2] | CC50 [3] | CC50 at 3 days [4] | CC50 [5] | EC50 [6] |
| --- | --- | --- | --- | --- | --- | --- |
| COc1cccc(CN(C(=O)c2cc(-c3cc(Cl)c(OC(F)F)cc3C(=O)N3Cc4ccccc4C[C@H]3CN3CCOCC3)n(C)c2C)c2ccc(Cl)cc2)c1C [Compound 32, 5-[5-chloro-4-(difluoromethoxy)-2-[(3S)-3-(morpholinomethyl)-3,4-dihydro-1H-isoquinoline-2-carbonyl]phenyl]-N-(4-chlorophenyl)-N-[(3-methoxy-2-methyl-phenyl)methyl]-1,2-dimethyl-pyrrole-3-carboxamide] | > 50 nM | 2000 to 5000 nM | > 200 nM | > 25000 nM | ≤ 5000 nM | > 500 nM |
| COc1cccc(CN(C(=O)c2cc(-c3cc(C(F)F)c(Cl)cc3C(=O)N3Cc4ccccc4C[C@H]3CN3CCOCC3)n(C)c2C)c2ccc(Cl)cc2)c1C [Compound 39, 5-[4-chloro-5-(difluoromethyl)-2-[(3S)-3-(morpholinomethyl)-3,4-dihydro-1H-isoquinoline-2-carbonyl]phenyl]-N-(4-chlorophenyl)-N-[(3-methoxy-2-methyl-phenyl)methyl]-1,2-dimethyl-pyrrole-3-carboxamide] | > 50 nM | 2000 to 5000 nM | > 200 nM | > 25000 nM | ≤ 5000 nM | > 500 nM |
| Cc1c(C(=O)N(Cc2ccccc2C#N)c2ccc(O)cc2)cc(-c2cc(F)c(F)cc2C(=O)N2Cc3ccccc3C[C@H]2CN2CCOCC2)n1C [Compound 53, N-[(2-cyanophenyl)methyl]-5-[4,5-difluoro-2-[(3S)-3-(morpholinomethyl)-3,4-dihydro-1H-isoquinoline-2-carbonyl]phenyl]-N-(4-hydroxyphenyl)-1,2-dimethyl-pyrrole-3-carboxamide] | 10 to 50 nM | 2000 to 5000 nM | 100 to 200 nM | > 25000 nM | 5000 to 10000 nM | 200 to 500 nM |
| COc1ccccc1CN(C(=O)c1cc(-c2cc(C#N)ccc2C(=O)N2Cc3ccccc3C[C@H]2CN2CCOCC2)n(C)c1C)c1ccc(O)cc1 [Compound 55, 5-[5-cyano-2-[(3S)-3-(morpholinomethyl)-3,4-dihydro-1H-isoquinoline-2-carbonyl]phenyl]-N-(4-hydroxyphenyl)-N-[(2-methoxyphenyl)methyl]-1,2-dimethyl-pyrrole-3-carboxamide] | 5 to 10 nM | ≤ 2000 nM | 100 to 200 nM | > 25000 nM | ≤ 5000 nM | 200 to 500 nM |
| COc1cc(-c2cc(C(=O)N(Cc3ccccc3OC)c3ccc(Cl)cc3)c(C)n2C)c(C(=O)N2Cc3ccccc3C[C@H]2CN2CCOCC2)cc1C#N [Compound 56, N-(4-chlorophenyl)-5-[4-cyano-5-methoxy-2-[(3S)-3-(morpholinomethyl)-3,4-dihydro-1H-isoquinoline-2-carbonyl]phenyl]-N-[(2-methoxyphenyl)methyl]-1,2-dimethyl-pyrrole-3-carboxamide] | > 50 nM | 2000 to 5000 nM | > 200 nM | ≤ 10000 nM | ≤ 5000 nM | > 500 nM |
| COc1cccc(CN(C(=O)c2cc(-c3cc(C#N)ccc3C(=O)N3Cc4ccccc4C[C@H]3CN3CCOCC3)n(C)c2C)c2ccc(O)cc2)c1C [Compound 57, 5-[5-cyano-2-[(3S)-3-(morpholinomethyl)-3,4-dihydro-1H-isoquinoline-2-carbonyl]phenyl]-N-(4-hydroxyphenyl)-N-[(3-methoxy-2-methyl-phenyl)methyl]-1,2-dimethyl-pyrrole-3-carboxamide] | 5 to 10 nM | 2000 to 5000 nM | ≤ 100 nM | > 25000 nM | ≤ 5000 nM | ≤ 200 nM |
